Experimental data reported in the NIST ThermoML archive (doi:10.1016/j.fluid.2015.10.001).
Values joined by “and” are separate entries in the source; they are usually repeats but may differ in a detail not shown here. Equal values may be shown once.

How the values were obtained:
[1] = Molar enthalpy of transition or fusion; settings: Crystal; DSC
[2] = Crystal; for vapor or sublimation pressure: Transpiration method; for Normal melting temperature: DTA

O=C(O)c1ccc(I)cc1 [4-iodobenzoic acid]
Settings | Molar enthalpy of transition or fusion [kJ/mol] | Normal melting temperature [°C]
[1] | 33.7 | –
[2] | – | 270.8

[2]
Settings | vapor or sublimation pressure [kPa]
388.9 K | 0.00205
391.1 K | 0.00244
403.3 K | 0.00654
409.4 K | 0.01081
415.3 K | 0.01743
421.5 K | 0.02673
424.5 K | 0.03413
427.4 K | 0.04118
433.5 K | 0.06312

O=C(O)c1cccc(F)c1 [3-fluorobenzoic acid]
Settings | Molar enthalpy of transition or fusion [kJ/mol] | Normal melting temperature [°C]
[1] | 18.5 | –
[2] | – | 122.8

[2]
Settings | vapor or sublimation pressure [kPa]
331.9 K | 0.00407
334.9 K | 0.00564
338 K | 0.00734
342.1 K | 0.01139
345 K | 0.01472
347.1 K | 0.01783
350.4 K | 0.02353
353.3 K | 0.03091
356.5 K | 0.04119
359.5 K | 0.0543
362.6 K | 0.06845

O=C(O)c1ccccc1I [2-iodobenzoic acid]
Settings | Molar enthalpy of transition or fusion [kJ/mol] | Normal melting temperature [°C]
[1] | 27.6 | –
[2] | – | 161.4

[2]
Settings | vapor or sublimation pressure
362.4 K | 0.00113 kPa
367.6 K | 0.00188 kPa
376.2 K | 0.00432 kPa
381.9 K | 0.00744 kPa
386.9 K | 0.01099 kPa
393.2 K | 0.02004 kPa and 0.01875 kPa
397.2 K | 0.02759 kPa
399.2 K | 0.03193 kPa
403.2 K | 0.0431 kPa and 0.04492 kPa
407.3 K | 0.06078 kPa
411.5 K | 0.08737 kPa

O=C(O)c1cccc(I)c1 [3-iodobenzoic acid]
Settings | Molar enthalpy of transition or fusion [kJ/mol] | Normal melting temperature [°C]
[1] | 27.7 | –
[2] | – | 185.8

[2]
Settings | vapor or sublimation pressure [kPa]
366.6 K | 0.00121
370.4 K | 0.00171
375.8 K | 0.00281
380.8 K | 0.00438
386 K | 0.00688
389.1 K | 0.00894
391.9 K | 0.01174
395.1 K | 0.01521
399.2 K | 0.02068
404.1 K | 0.03146
404.2 K | 0.03145
409 K | 0.04684
411.4 K | 0.05339
414.2 K | 0.06461
417.5 K | 0.08451
422 K | 0.1194

O=C(O)c1ccc(F)cc1 [4-fluorobenzoic acid]
Settings | Molar enthalpy of transition or fusion [kJ/mol] | Normal melting temperature [°C]
[1] | 21.6 | –
[2] | – | 183.0

[2]
Settings | vapor or sublimation pressure [kPa]
343 K | 0.00456
346.2 K | 0.00612
349.3 K | 0.00844
355.1 K | 0.01384
356.5 K | 0.01539
359.5 K | 0.02097
363.7 K | 0.02861
365.6 K | 0.03441
366.9 K | 0.03729
371.8 K | 0.05523
375.8 K | 0.07688
380.9 K | 0.1162
385.2 K | 0.1594
386.2 K | 0.1701

O=C(O)c1ccccc1F [2-fluorobenzoic acid]
Settings | Molar enthalpy of transition or fusion [kJ/mol] | Normal melting temperature [°C]
[1] | 20.3 | –
[2] | – | 123.6

[2]
Settings | vapor or sublimation pressure [kPa]
333.9 K | 0.00321
334.6 K | 0.0035
335.9 K | 0.00389
337 K | 0.00451
338.9 K | 0.00528
340.2 K | 0.00614
342 K | 0.00738
342.2 K | 0.00734
345 K | 0.0094
346.6 K | 0.01115
348.3 K | 0.0132
351.2 K | 0.01709
352.4 K | 0.01997
353.2 K | 0.02087
354.2 K | 0.02242
356.5 K | 0.02903
358.2 K | 0.03398
358.3 K | 0.0322
360.5 K | 0.03997
361.3 K | 0.04428
363.4 K | 0.05001
364.5 K | 0.05529
367.2 K | 0.07204
